Common to all, as to assay type: cell-based, human
Assay [1] has as its system HCT116-C9-C1. Nature of the assay: Gene expression analysis by quantitative PCR. The note with it: resistant strain HCT116-C9-C1, 8 μM, 0-12 hours, FIG. 4. On the procedure:
(§1) E7070, or ER-35748 or ER-68487 represented by the structural formula shown below was added to the media of an E7070-susceptible strain HCT116-C9 and an E7070-resistant strain HCT116-C9-C1 at a concentration of 8 μM and the cells were cultured. Then, cells were recovered after 0, 3, 6 and 12 hours. Further, the cells were also cultured for 12 hours without adding the drug and recovered. In order to confirm that variations in gene expression obtained in Example 2 reflected the susceptibility of a tumor cell to E7070, changes of gene expression in E7070-susceptible cells and E7070-resistant cells were examined by quantitative PCR using RNA shown in Example 1, SYBR Green and ABI Prism 7700 Sequence Detection System (Perkin-Elmer Applied Biosystems). The operation was performed in two steps of a reverse transcription reaction and PCR reaction. […] The mRNA level in each specimen was quantified by measuring fluorescence intensity. In comparison of two or more specimens, quantitative values were corrected based on the mRNA level of GAPDH in each specimen. The relationships between the drug treatment time and each mRNA level are shown in FIGS. 2 to 5, where the quantified value at 0 hour after the drug treatment was used as a control (100%).

For assay [2], the system named is HCT116-C9. Nature of the assay: Gene expression analysis by quantitative PCR. The note with it: susceptible strain HCT116-C9, 8 μM, 0-12 hours, FIG. 2. On the procedure: as §1
Assay [3] deals with HCT116-C9. Nature of the assay: Cell growth inhibition by the MTT method. The note with it: HCT116-C9, 72 hours culture, FIG. 1. On the procedure: (§2) The used cell strains HCT116-C9, HCT116-C9-C1, LX-1 and LX-1-E2 were cultured for 72 hours with addition of E7070. The actual operation was performed by using CellTiter 96 Non-Radioactive Cell Proliferation Assay (Promega, Madison, Wis.) according to the attached operation manual.

Assay [4] has as its system LX-1-E2. Nature of the assay: Cell growth inhibition by the MTT method. The note with it: resistant strain LX-1-E2, drug concentration 8 μM, 72 hours culture. On the procedure: as §2

As for `NS(=O)(=O)c1ccc(S(=O)(=O)Nc2cccc3c(Cl)c[nH]c23)cc1` [E7070, N-(3-chloro-7-indolyl)-1,4-benzenedisulfonamide], the “mRNA level variation of S80343, U07919, U11791, M95809, U18291, U63743, M61764 (corrected by GAPDH)” value in assay [1] was “no expression variation was observed”; in assay [2] it was “largest expression variation”. Further, in assay [3], the “susceptibility (cell growth inhibition)” value was “highest susceptibility”. In addition, in assay [4], the growth inhibitory effect entry is listed as “some growth inhibitory effect”.

The values are drawn from patent US7445892B2, “Method of testing anticancer agent-sensitivity of tumor cells” (Eisai Co., Ltd., priority 2000, dated 2008).
